According to patent US11807835B2, “Detergent compositions containing a stabilized enzyme by phosphonates” (ECOLAB USA INC., priority 2016, dated 2023):

What was measured:
protease = test: Protease activity retention in detergent use solution (4000 ppm, 5 GPG water; peptidyl substrate, glycine buffer pH 9.0); assay type: biochemical; settings: for Relative Protease Enzyme Activity: use solution at 120° F.
Protocol: (§1) The enzyme activities in the detergents with different phosphonate levels were tested at 4000 ppm in 5 grains per gallon (GPG) water at 120° F. with various time points collected up to 4 hours, after a use solution was generated from the detergent composition. During the tests, the samples at different time points were collected and immediately frozen in an acetone/dry ice bath and stored in −80° C. before the activity of the enzyme was evaluated. For the use of such an assay, t=0 min was the reference point for 100% enzyme activity.
(§2) Assays of enzyme activity in formulations (% retention) were conducted to simulate a presoak condition in a beaker using the chemistry, temperature, and pH conditions relevant to manual warewash or presoak applications. Enzyme activity is an indicator of the stability of the enzyme in the detergent, specifically in an aqueous use solution within a sump (which is under conditions of high pH, temperature and dilution).
The analysis by protease assay was conducted as follows. For the assays, a detergent composition was used to generate an aqueous use solution evaluated herein.
(§3) Enzyme activity under presoak or manual warewash conditions was traced quantitatively using a standard protease assay. Samples were prepared under bench top conditions, whereby the use solution from a detergent composition or detergent was obtained and maintained at a presoak or manual warewash temperature in a stirring water bath. After the time course for assessing enzyme stability is initiated, aliquots were taken at various time points and flash-frozen. A time=0 sample was prepared for each series by dissolving the detergent formulation at room temperature, mixing thoroughly, and flash freezing. Samples were thawed and diluted as necessary in an assay buffer usually for use in the protease assay. A glycine buffer at pH 9.0 is used here. The assay monitored the direct reaction of the protease on a small, commercially available peptidyl substrate, with liberation of the product providing correlation to the active enzyme content. The product was detected using a plate reader with an appreciable dynamic range (upper absorbance limit of the instrument >3.5). Enzyme activity levels were assessed relative to a calibration curve with average values for replicate tests used to map protease stability under presoak or manual warewash use conditions. Enzyme retention at each time point was calculated as the % enzyme activity relative to the time=0 sample.

lipase = test: Lipase activity retention in detergent use solution (4000 ppm, 5 GPG water; p-nitrophenyl valerate, TRIS buffer pH 8.0); assay type: biochemical; settings: Table 6E, phosphonate 0.3 wt-%, room temperature
Protocol: as §1, with “activities in the detergents with different phosphonate levels were tested at 4000 ppm in 5 grains per gallon (GPG) water at 120° F. with various time points” left out
as §2, §3
The analysis by lipase and amylase assay was conducted similarly, except with a different substrate and buffers. For lipase activity, the substrate is p-nitrophenyl valerate, and for amylase, the substrate is an ethylidene substrate (EPS). The buffer used in lipase assay is TRIS (Tris(hydroxymethyl)aminomethane) buffer at pH 8.0, and in amylase assay HEPES (4-(2-hydroxyethyl)-1-piperazineethanesulfonic acid) buffer at pH 8.0.

Compound: CC(O)(P(=O)(O)O)P(=O)(O)O [HEDP, 1-hydroxy ethylidene-1,1-diphosphonic acid]
- Relative Protease Enzyme Activity (protease; All Ash formula, phosphonate 0.3 wt-%, time 0 min): 100.00%
- Relative Protease Enzyme Activity (protease; All Ash formula, phosphonate 0.3 wt-%, time 5 min): 8.63%
- Relative Protease Enzyme Activity (protease; All Ash formula, phosphonate 0.3 wt-%, time 10 min): 3.25%
- Relative Protease Enzyme Activity (protease; All Ash formula, phosphonate 0.3 wt-%, time 20 min): 0.61%
- Relative Protease Enzyme Activity (protease; All Ash formula, phosphonate 0.3 wt-%, time 40 min): −1.32%
- Relative Protease Enzyme Activity (protease; All Ash formula, phosphonate 0.3 wt-%, time 60 min): −1.66%
- Relative Protease Enzyme Activity (protease; All Ash formula, phosphonate 0.3 wt-%, time 90 min): −0.97%
- Relative Protease Enzyme Activity (protease; All Ash formula, phosphonate 0.3 wt-%, time 120 min): −1.23%
- Relative Protease Enzyme Activity (protease; All Ash formula, phosphonate 0.3 wt-%, time 150 min): −0.85%
- Relative Protease Enzyme Activity (protease; All Ash formula, phosphonate 0.3 wt-%, time 180 min): −0.93%
- Relative Protease Enzyme Activity (protease; All Ash formula, phosphonate 0.3 wt-%, time 210 min): −0.42%
- Relative Protease Enzyme Activity (protease; All Ash formula, phosphonate 0.3 wt-%, time 240 min): −0.42%
- Relative Protease Enzyme Activity (protease; base formula, phosphonate 0.3 wt-%, time 0 min): 100.00%
- Relative Protease Enzyme Activity (protease; base formula, phosphonate 0.3 wt-%, time 5 min): 52.21%
- Relative Protease Enzyme Activity (protease; base formula, phosphonate 0.3 wt-%, time 10 min): 32.95%
- Relative Protease Enzyme Activity (protease; base formula, phosphonate 0.3 wt-%, time 20 min): 15.91%
- Relative Protease Enzyme Activity (protease; base formula, phosphonate 0.3 wt-%, time 40 min): 8.68%
- Relative Protease Enzyme Activity (protease; base formula, phosphonate 0.3 wt-%, time 60 min): 5.52%
- Relative Protease Enzyme Activity (protease; base formula, phosphonate 0.3 wt-%, time 90 min): 4.10%
- Relative Protease Enzyme Activity (protease; base formula, phosphonate 0.3 wt-%, time 120 min): 3.10%
- Relative Protease Enzyme Activity (protease; base formula, phosphonate 0.3 wt-%, time 150 min): 2.39%
- Relative Protease Enzyme Activity (protease; base formula, phosphonate 0.3 wt-%, time 180 min): 1.65%
- Relative Protease Enzyme Activity (protease; base formula, phosphonate 0.3 wt-%, time 210 min): 1.36%
- Relative Protease Enzyme Activity (protease; base formula, phosphonate 0.3 wt-%, time 240 min): 1.20%
- Relative Protease Enzyme Activity (protease; base formula, phosphonate 0.6 wt-%, time 0 min): 100.00%
- Relative Protease Enzyme Activity (protease; base formula, phosphonate 0.6 wt-%, time 5 min): 69.69%
- Relative Protease Enzyme Activity (protease; base formula, phosphonate 0.6 wt-%, time 10 min): 51.90%
- Relative Protease Enzyme Activity (protease; base formula, phosphonate 0.6 wt-%, time 20 min): 27.67%
- Relative Protease Enzyme Activity (protease; base formula, phosphonate 0.6 wt-%, time 40 min): 12.41%
- Relative Protease Enzyme Activity (protease; base formula, phosphonate 0.6 wt-%, time 60 min): 7.62%
- Relative Protease Enzyme Activity (protease; base formula, phosphonate 0.6 wt-%, time 90 min): 4.70%
- Relative Protease Enzyme Activity (protease; base formula, phosphonate 0.6 wt-%, time 120 min): 2.94%
- Relative Protease Enzyme Activity (protease; base formula, phosphonate 0.6 wt-%, time 150 min): 1.79%
- Relative Protease Enzyme Activity (protease; base formula, phosphonate 0.6 wt-%, time 180 min): 0.92%
- Relative Protease Enzyme Activity (protease; base formula, phosphonate 0.6 wt-%, time 210 min): 0.71%
- Relative Protease Enzyme Activity (protease; base formula, phosphonate 0.6 wt-%, time 240 min): 0.45%
- Relative Protease Enzyme Activity (protease; base formula, phosphonate at 0.1% elemental phosphorus, time 0 min): 100.00%
- Relative Protease Enzyme Activity (protease; base formula, phosphonate at 0.1% elemental phosphorus, time 5 min): 77.74%
- Relative Protease Enzyme Activity (protease; base formula, phosphonate at 0.1% elemental phosphorus, time 10 min): 53.71%
- Relative Protease Enzyme Activity (protease; base formula, phosphonate at 0.1% elemental phosphorus, time 20 min): 23.58%
- Relative Protease Enzyme Activity (protease; base formula, phosphonate at 0.1% elemental phosphorus, time 40 min): 9.12%
- Relative Protease Enzyme Activity (protease; base formula, phosphonate at 0.1% elemental phosphorus, time 60 min): 5.36%
- Relative Protease Enzyme Activity (protease; base formula, phosphonate at 0.1% elemental phosphorus, time 90 min): 3.76%
- Relative Protease Enzyme Activity (protease; base formula, phosphonate at 0.1% elemental phosphorus, time 120 min): 2.44%
- Relative Protease Enzyme Activity (protease; base formula, phosphonate at 0.1% elemental phosphorus, time 150 min): 1.45%
- Relative Protease Enzyme Activity (protease; base formula, phosphonate at 0.1% elemental phosphorus, time 180 min): 0.74%
- Relative Protease Enzyme Activity (protease; base formula, phosphonate at 0.1% elemental phosphorus, time 210 min): 0.64%
- Relative Protease Enzyme Activity (protease; base formula, phosphonate at 0.1% elemental phosphorus, time 240 min): 0.45%
- enzyme activity of amine salt of the phosphonate versus non-neutralized phosphonate (protease; phosphonate neutralized with an amine, such as triethanolamine): much improved enzyme activity
- Relative Lipase Enzyme Activity in a Use Solution (lipase; time 0 min): 100.00%
- Relative Lipase Enzyme Activity in a Use Solution (lipase; time 5 min): 101.22%
- Relative Lipase Enzyme Activity in a Use Solution (lipase; time 10 min): 102.97%
- Relative Lipase Enzyme Activity in a Use Solution (lipase; time 20 min): 98.65%
- Relative Lipase Enzyme Activity in a Use Solution (lipase; time 40 min): 81.12%
